Test results: PMC9448861 (Frontiers in Pharmacology, 2022)
Read-outs that look alike come from different tables or passages of the source.

What was measured:
[1] = Pharmacokinetics of ketamine and its metabolite hydroxynorketamine in mouse serum, hippocampus and frontal cortex (noncompartmental analysis, LC-MS/MS); assay type: in vivo, C57BL/6J mice; settings: for AUC0-∞ / t0.5λz / tmax / Cmax / MRT / k el / CL/F / Vd/F: ketamine 10 mg/kg i.p.; for Kp / Cmax / MRT / k el / CL/F / Vd/F: male, C57BL/6J, mouse, 10 mg/kg; for Kp: intraperitoneal; for Cmax / MRT / k el / CL/F / Vd/F: ip; for Cmax: read-out: Cmax; for MRT: read-out: MRT (converted); for k el: read-out: λz (converted); for Vd/F: read-out: Vz/F
[2] = system: mice subjected to CRS and CRS + ZnD; experiment: Sucrose preference test (SPT) in mice subjected to CRS or CRS + ZnD; assay type: in vivo, C57BL/6J mice; settings: three doses (ketamine 10 mg/kg, Ro 10 mg/kg, Hyp 2.5 mg/kg + Lan 10 mg/kg), 24 h after the last treatment
Protocol: (§1) All the compounds/drugs used in the study were obtained commercially, except for hyperforin (sodium salt), which was received as a gift from Dr. Wilmar Schwabe GmbH and Co (Karlsruhe, Germany). […] The control group received only 0.9% NaCl.
(§2) One week after acclimation, the mice were subjected to either a zinc-adequate feed (ZnA, 50 mg/kg) or zinc-deficient/low-Zn feed (ZnD, 3 mg/kg). Beginning from the second week, some ZnD mice were additionally subjected to 3 weeks of CRS. At the beginning of the 5th week, the mice were subjected to their appropriate treatment schedules or behavioral tests (see schemes in the figures).
(§3) CRS was performed in accordance with the procedures of [Ding et al. (2016]) with modifications. Mice from the stress groups were restrained in well-ventilated tubes with caps and holes for breathing (in a separate room from the control groups) for 3 h/day over 3 weeks. After each restraint period, the mice were transferred to housing cages. The control mice were housed at 6 mice per cage in an enriched environment and were handled every third day.
Seven days before the tests, the control and stressed mice were singly housed. The tests were carried out as follows. Two bottles (water and 1% sucrose solution) were placed in each cage 63 h before the test. Twenty-four hours later, the bottles were switched from right to left. Fifteen hours before the tests, the animals were deprived of food, water, and sucrose. The tests lasted 2 h, and sucrose preference was calculated as a percentage of the volume of sucrose intake over the total volume of fluid intake (water and sucrose solution). The SPT was performed during the light phase.

[3] = system: mice subjected to CRS and CRS + ZnD; experiment: Tail suspension test (TST) in mice subjected to CRS or CRS + ZnD; assay type: in vivo, C57BL/6J mice; settings: three doses, 72 h after the last treatment
Protocol: as §1, §2, §3
The TST was performed as described in a previous work ([Pochwat et al., 2018]). Briefly, each mouse was suspended individually by the tail using adhesive tape (2 cm from the tail tip) affixed to a solid flat surface, and immobility times were measured for 6 min. […]

[4] = system: treatment-resistant depression; design: method as in Serafini et al., 2014; settings: ref Serafini et al., 2014; cited from earlier work
[5] = system: Zn levels in the Hp and FC; experiment: Analysis of zinc (F-AAS) in the Hp and FC; assay type: in vivo, C57BL/6J mice; settings: CRS + ZnD mice; three doses
Protocol: as §1
The samples were mineralized before the experiments. Briefly, three independent test portions of 0.5 g each were weighed from each sample and transferred to Teflon vessels. Then, 2 mL of 30% H2O2 and 6 mL of 65% HNO3 (V) were added, and the mixture was subjected to wet mineralization in a closed system in a Magnum II mineralizer (ERTEC). Mineralization was carried out for 75 min with three cycles of magnetron operation, where the first 30 min was at 60% power, next 15 min was at 80% power, and the remaining 30 min was at 100% power. The mineralized solution thus obtained was heated on a hot plate at 120 °C for 60 min to remove the excess reagents. The samples were then quantitatively transferred to 10 mL flasks and used to determine the zinc content via the F–AAS method (adsorption and emission technique). An atomic absorption spectrometer (iCE 3500, Thermo Scientific, UK) was used to measure the Zn content; each sample was analyzed independently thrice, and the obtained results are presented as mean value ± standard error of mean (SEM).

[6] = frontal cortex, frontal cortex, CRS + ZnD mice
[7] = frontal cortex, frontal cortex, CRS mice
[8] = frontal cortex, frontal cortex, Control mice
[9] = hippocampus, hippocampus, CRS + ZnD mice
[10] = hippocampus, hippocampus, CRS mice
[11] = hippocampus, hippocampus, Control mice

With `CNC1(c2ccccc2Cl)CCCCC1=O` (centres unmarked) [Ketamine, ketamine] the “AUC0-∞” value ([1]; frontal cortex, CRS + ZnD mice) was 65.97 µg·min/g, the t0.5λz ([1]; frontal cortex, CRS + ZnD mice) was 32.31 min and the tmax ([1]; frontal cortex, CRS + ZnD mice) was 10 min. The “AUC0-∞” value ([1]; frontal cortex, CRS mice) was 106.58 µg·min/g, the t0.5λz ([1]; frontal cortex, CRS mice) was 34.92 min and the tmax ([1]; frontal cortex, CRS mice) was 10 min. The “AUC0-∞” value ([1]; frontal cortex, Control mice) was 97.81 µg·min/g, the t0.5λz ([1]; frontal cortex, Control mice) was 30.49 min and the “AUC0-∞” value ([1]; hippocampus, CRS + ZnD mice) was 58.49 µg·min/g. The t0.5λz ([1]; hippocampus, CRS + ZnD mice) was 42.69 min, the tmax ([1]; hippocampus, CRS + ZnD mice) was 10 min and the “AUC0-∞” value ([1]; hippocampus, CRS mice) was 96.13 µg·min/g. For the same compound, the t0.5λz ([1]; hippocampus, CRS mice) was 39.68 min, the tmax ([1]; hippocampus, CRS mice) was 10 min and the “AUC0-∞” value ([1]; hippocampus, Control mice) was 80.90 µg·min/g. The t0.5λz ([1]; hippocampus, Control mice) was 37.36 min, the Kp ([1]; brain structure (not specified) / serum, CRS + ZnD animals, read-out: tissue-to-serum AUC ratio for the parent drug) was 1.3 and the Kp ([1]; brain structure (not specified) / serum, CRS + ZnD animals, read-out: tissue-to-serum Cmax ratio for the parent drug) was 1. For the same compound, the Cmax [1, 6] was 2650 ng/g, the MRT [1, 6] was 28.8 min and the k el [1, 6] was 0.000367 s⁻¹. The Cmax [1, 7] was 3030 ng/g, the MRT [1, 7] was 28.4 min and the k el [1, 7] was 0.000333 s⁻¹. For the same compound, the Cmax [1, 8] was 3460 ng/g, the MRT [1, 8] was 30.1 min and the k el [1, 8] was 0.000383 s⁻¹. It also gave a Kp ([1]; hippocampus and frontal cortex / serum, control and stress (CRS) groups, Hp and FC, read-out: tissue-to-serum Cmax and AUC ratios for the parent drug) of 2.45 to 2.84, a Cmax [1, 9] of 2310 ng/g and an MRT [1, 9] of 31.3 min. For the same compound, the k el [1, 9] was 0.000267 s⁻¹, the Cmax [1, 10] was 3180 ng/g and the MRT [1, 10] was 28.5 min. The k el [1, 10] was 0.000283 s⁻¹, the Cmax [1, 11] was 2990 ng/g and the MRT [1, 11] was 30.4 min. The k el [1, 11] was 0.000317 s⁻¹, the CL/F ([1]; serum, serum, CRS + ZnD mice) was 220 mL/min/kg and the Cmax ([1]; serum, serum, CRS + ZnD mice) was 2150 ng/mL. The MRT ([1]; serum, serum, CRS + ZnD mice) was 22 min, the Vd/F ([1]; serum, serum, CRS + ZnD mice) was 11.6 L/kg and the k el ([1]; serum, serum, CRS + ZnD mice) was 0.000317 s⁻¹. The Cmax ([1]; serum, serum, CRS mice) was 1120 ng/mL, the MRT ([1]; serum, serum, CRS mice) was 29.8 min and the Vd/F ([1]; serum, serum, CRS mice) was 14.6 L/kg. For the same compound, the k el ([1]; serum, serum, CRS mice) was 0.000317 s⁻¹, the Cmax ([1]; serum, serum, Control mice) was 1130 ng/mL and the MRT ([1]; serum, serum, Control mice) was 34.2 min. It also gave a Vd/F ([1]; serum, serum, Control mice) of 16 L/kg, a k el ([1]; serum, serum, Control mice) of 0.000317 s⁻¹ and a CL/F ([1]; serum, CRS mice) of 270 mL/min/kg. The CL/F ([1]; serum, Control mice) was 300 mL/min/kg, the t0.5λz ([1]; serum, CRS + ZnD mice) was 35.93 min and the tmax ([1]; serum, CRS + ZnD mice) was 10 min. For the same compound, the t0.5λz ([1]; serum, CRS mice) was 37.06 min, the tmax ([1]; serum, CRS mice) was 10 min and the t0.5λz ([1]; serum, Control mice) was 36.70 min. For the same compound, the “sucrose preference in the SPT” value ([2]; CRS + ZnD mice) was “failed to restore sucrose preference”, the “sucrose preference in the SPT” value ([2]; CRS mice) was “restored the sucrose preference” and the “immobility time in the TST” value [3] was “ineffective”. The estimated efficacy [4] was 50–70% and the “Zn levels in the Hp and FC” value [5] was “reduced the Zn levels”.
